Measurements: patent US10039806B2, “Methods and compositions for treating antiprogestin-resistant cancers” (Fundación Sales, priority 2011, dated 2018)
Where two headings read alike, the source gives them in different places.

What was measured:
[1] = tested on: HI-responsive tumors; test: MPA breast cancer model, HI-responsive tumors in vivo; design: species or system mouse
[2] = target: T1, PR (Homo sapiens, UniProt P06401); conditions: cited from earlier work
T1 sequence (P06401 1-933): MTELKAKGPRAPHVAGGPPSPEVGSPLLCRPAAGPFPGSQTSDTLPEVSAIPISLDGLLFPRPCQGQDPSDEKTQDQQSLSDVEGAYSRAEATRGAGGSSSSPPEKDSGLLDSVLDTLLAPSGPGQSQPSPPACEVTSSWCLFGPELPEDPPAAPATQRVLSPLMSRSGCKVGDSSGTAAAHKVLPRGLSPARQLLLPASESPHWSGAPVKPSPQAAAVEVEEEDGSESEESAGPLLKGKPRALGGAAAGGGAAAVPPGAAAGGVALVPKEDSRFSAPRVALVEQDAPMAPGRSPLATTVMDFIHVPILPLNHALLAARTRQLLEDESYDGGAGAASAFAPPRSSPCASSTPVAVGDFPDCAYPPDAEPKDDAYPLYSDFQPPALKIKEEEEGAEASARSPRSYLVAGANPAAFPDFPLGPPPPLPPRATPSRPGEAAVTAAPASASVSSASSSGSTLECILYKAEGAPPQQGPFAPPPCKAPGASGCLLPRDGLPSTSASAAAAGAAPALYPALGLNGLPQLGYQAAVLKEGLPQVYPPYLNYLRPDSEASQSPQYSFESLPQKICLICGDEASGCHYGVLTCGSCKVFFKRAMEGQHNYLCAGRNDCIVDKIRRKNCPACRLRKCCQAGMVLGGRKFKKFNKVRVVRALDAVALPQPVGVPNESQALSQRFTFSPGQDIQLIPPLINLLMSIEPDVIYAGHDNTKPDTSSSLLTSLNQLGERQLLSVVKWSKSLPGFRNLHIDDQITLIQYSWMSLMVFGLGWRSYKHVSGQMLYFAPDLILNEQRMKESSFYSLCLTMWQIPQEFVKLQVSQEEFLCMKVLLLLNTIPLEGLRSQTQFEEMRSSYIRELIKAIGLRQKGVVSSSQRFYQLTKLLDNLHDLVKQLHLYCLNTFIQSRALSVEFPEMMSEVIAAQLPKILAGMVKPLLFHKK

[3] = target: GR (Homo sapiens, UniProt P04150); conditions: cited from earlier work
[4] = target: T2, glucocorticoid receptor (Homo sapiens, UniProt P04150); conditions: cited from earlier work
T2 sequence (P04150 1-777): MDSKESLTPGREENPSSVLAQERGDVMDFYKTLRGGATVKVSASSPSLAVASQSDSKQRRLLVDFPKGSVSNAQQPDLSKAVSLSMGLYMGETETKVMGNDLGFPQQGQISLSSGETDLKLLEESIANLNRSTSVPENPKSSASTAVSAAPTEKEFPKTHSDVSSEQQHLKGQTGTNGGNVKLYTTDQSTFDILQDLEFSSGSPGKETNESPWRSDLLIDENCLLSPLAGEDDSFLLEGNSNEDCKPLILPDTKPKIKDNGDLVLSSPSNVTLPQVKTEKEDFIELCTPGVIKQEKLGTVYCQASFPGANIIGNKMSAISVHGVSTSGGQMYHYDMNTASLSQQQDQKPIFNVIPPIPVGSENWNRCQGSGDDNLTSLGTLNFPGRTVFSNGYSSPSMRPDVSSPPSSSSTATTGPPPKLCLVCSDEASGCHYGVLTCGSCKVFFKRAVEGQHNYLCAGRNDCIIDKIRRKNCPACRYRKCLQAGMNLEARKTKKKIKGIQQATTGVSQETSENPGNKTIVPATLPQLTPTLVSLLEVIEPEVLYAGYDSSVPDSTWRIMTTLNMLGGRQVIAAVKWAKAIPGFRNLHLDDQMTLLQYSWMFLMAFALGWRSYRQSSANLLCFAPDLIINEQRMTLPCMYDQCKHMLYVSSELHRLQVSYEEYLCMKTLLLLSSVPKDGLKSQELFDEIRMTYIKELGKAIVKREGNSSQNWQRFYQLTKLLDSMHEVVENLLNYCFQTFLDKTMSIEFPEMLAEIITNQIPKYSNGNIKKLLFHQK

[5] = tested on: T61 human tumors; conditions: in vivo; cited from earlier work
[6] = tested on: HI-responsive tumors; conditions: cited from earlier work; for therapeutic effects: murine mammary carcinomas with increased PR-A/PR-B
[7] = tested on: primary cultures of responsive tumors; conditions: 1-100 nM; cited from earlier work
[8] = tested on: DMBA-induced mammary tumors; conditions: cited from earlier work
[9] = tested on: MXT mouse model of breast cancer; conditions: cited from earlier work
[10] = tested on: T47D cells; conditions: cited from earlier work
[11] = tested on: MCF-7 xenografts; conditions: MIF 50 mg/kg/day, ONA 30 mg/kg/day, 17 days; cited from earlier work
[12] = tested on: breast cancer; conditions: cited from earlier work
[13] = target: T1, PR; conditions: cited from earlier work; remark: listed apart in the source
[14] = tested on: epithelial cells from breast cancer samples; test: Primary cultures from breast cancer samples: cell number or Ki67; type: cell-based, human; conditions: 10^-8 M, one week; 3 out of 8 cases; p<0.05
Description: The samples were obtained at surgery from patients diagnosed with breast cancer at the […]. de Martinez Hospital from General Pacheco and at the […] Hospital of Buenos Aires after signing the informed consent (n=70; median age 55 year). Protocols were approved by the Institutional Ethical Review Board. Whenever possible, one piece of the sample was kept in dry ice immediately after surgery and another piece was kept in culture medium and transported to IBYME. Tumor samples were processed by mechanical and enzymatic degradation and epithelial cells were purified by differential sedimentation techniques (7). The epithelial cells were cultured with DMEM/F12 medium plus 10% fetal calf serum (FCS). Once the cultures were overcrowded, they were subcultured and equal numbers of cells were seeded in 24 well plates. […] OH-Tamoxifen was also used as a control. After one week of treatment, the cells were trypsinized and the total number of cells in each well was counted or alternatively, they were fixed to evaluate the Ki67 (proliferation marker) expression by IHC. In several cases in which there were carcinoma associated fibroblasts intermingled with the epithelial cells, a double staining of Ki67 and cytokeratin (CK) was performed to consider the proliferating cells among the total number of epithelial cells (CK+). An inhibitory index was calculated for each tumor.

[15] = tested on: MCF-7 cells; conditions: 10 nM; 10% steroid-deficient human serum; cited from earlier work
[16] = tested on: C4-HI cells; test: (3H)-thymidine uptake, primary cultures of purified epithelial cells; type: cell-based, mouse; conditions: 48 h, with MPA; P<0.001
Method: (§1) Epithelial cells and carcinoma-associated fibroblasts were separated by differential sedimentation and plated with 10% FCS. Carcinoma-associated fibroblasts were allowed to attach for 0.5 h and the epithelial cells for 24-48 h. The medium was replaced by fresh medium with 10% FCS; thereafter, it was changed every 2-3 days.
(§2) (3H)-thymidine-uptake was used as an indirect method to evaluate cell proliferation. In brief, cells were seeded into 96-well microplates. After attachment (24 h), the cells were incubated for 24 h with 1% steroid-stripped FCS and then for 48 h with the experimental solutions to be tested in 1% chFCS. Fifty percent of the medium was replaced with fresh medium every 24 h. The cells were incubated with 0.4 μCi of 3H-thymidine (specific activity: 20 Ci/mmol) for 24 h, trypsinized, and harvested in a cell harvester. In experiments in which 5azadC was used, the experiments were carried out using proliferating cells (presence of 10% FCS) to guarantee the effect of the demethylating agent. Three different experiments were made using octuplicates, and the means and standard deviations of one representative experiment of the other three are shown. The results are expressed as the proliferation index (cpm […] experimental group/cpm control; mean±SEM).

[17] = tested on: C4-HIR cells; test: as above; type: cell-based, mouse; conditions: 48 h, with MPA; P<0.001
Method: as §1, §2

C/C=C\[C@]1(O)CC[C@H]2[C@@H]3CCC4=CC(=O)CCC4=C3[C@@H](c3ccc(N(C)C)cc3)C[C@@]21C [Aglepristone]
tumor regression ([1]; 3 mg/week, unpublished data): regress | PR affinity [2]: high affinity | GR affinity [3]: lower affinity

CC(=O)O[C@]1(C(C)=O)CC[C@H]2[C@@H]3CCC4=CC(=O)CCC4=C3[C@@H](c3ccc(N(C)C)cc3)C[C@@]21C [CDB-2914]
antiglucocorticoid activity [4]: less than that of MIF

COCC(=O)[C@@]1(OC(C)=O)CC[C@H]2[C@@H]3CCC4=CC(=O)CCC4=C3[C@@H](c3ccc(N(C)C)cc3)C[C@@]21C [CDB-4124]
antiglucocorticoid activity [4]: less than that of MIF

C[C@]12CC[C@@H]3c4ccc(O)cc4CC[C@H]3[C@@H]1CC[C@@H]2O [E2, 17-β-Estradiol]
tumor regression ([1]; 0.5-5 mg): regress | tumor growth [5]: induces tumor regression

CN(C)c1ccc([C@H]2C[C@]3(C)[C@@H](CC[C@]3(O)CCCO)[C@@H]3CCC4=CC(=O)CCC4=C32)cc1 [ONA, onapristone]
tumor regression ([6]; daily doses of 10 mg/kg): regress | tumor regression ([6]; mouse, in vivo): induced tumor regression | therapeutic effects [6]: excellent therapeutic effects | MPA-induced or FGF2-induced cell proliferation [7]: inhibited MPA-induced or FGF2-induced cell proliferation | antiglucocorticoid activity [4]: antiglucocorticoid effects at higher concentrations | efficacy compared with MIF ([8]; same doses): more efficacious than MIF | inhibition of cell proliferation compared with MIF ([9]; 10 mg/kg/day): better than MIF at inhibiting cell proliferation | tumor take and stimulatory effects of E2 and MPA ([9]; 1 or 10 mg/kg/day from one day post-transplantation): inhibited both tumor take and the stimulatory effects of E2 and MPA | effects on T47D cells ([10]; 5% FCS): inhibitory effects | E2-induced proliferation of xenografts [11]: inhibited | tumor growth [5]: has no effect | partial response ([12]; 19 patients): 56% | stable disease ([12]; 19 patients): 11% | reason for discontinuation ([12]; human, in vivo): hepatotoxicity | reason for stopping the trial ([12]; human, in vivo): liver function test abnormalities | effect in cells treated with analogs of cyclic AMP ([13]; T47D cells transfected with MMTV-CAT): still behaved as an antagonist

C[C@@H]1C[C@@H]2C(=C3CCC(=O)C=C31)[C@@H](c1ccc(N(C)C)cc1)C[C@@]1(C)[C@H]2CC[C@@]12CCCO2 [Org 31710]
efficacy compared with MIF ([8]; p.o.): more effective than MIF

C[C@H]1CC2=CC(=O)CCC2=C2[C@@H]1[C@@H]1CC[C@@]3(CCCO3)[C@@]1(C)C[C@@H]2c1ccc(N(C)C)cc1 [Org 31806]
efficacy compared with MIF ([8]; p.o.): more effective than MIF

CCC(=O)[C@@]1(C)CC[C@H]2[C@@H]3CCC4=CC(=O)CCC4=C3CC[C@@]21C [R5020]
proliferation of T47D and MCF-7 cells ([10]; MIF at micromolar concentrations): stimulate the proliferation

CC/C(=C(\c1ccccc1)c1ccc(OCCN(C)C)cc1)c1ccccc1 [Tamoxifen, tamoxifen]
number of cells as compared to the controls [14]: significant decrease in the number of cells | tumor growth ([1]; mouse, in vivo): tumor growth was inhibited | PR (and ER) expression ([8]; rat, in vivo): increased PR expression | E2-induced cell proliferation [15]: inhibited E2-induced cell proliferation | E2-induced cell proliferation ([10]; clone 11, ER- and PR-positive): specifically inhibit E2-induced cell proliferation | tumor growth [5]: inhibits tumor growth

CC#C[C@]1(O)CC[C@H]2[C@@H]3CCC4=CC(=O)CCC4=C3[C@@H](c3ccc(C(C)=O)cc3)C[C@@]21C [ZK 112993]
tumor growth [5]: significantly inhibits the growth

CC(=O)c1ccc([C@H]2C[C@@]3(C)[C@@H](CC[C@@]3(O)C(F)(F)C(F)(F)F)[C@@H]3CCC4=CC(=O)CCC4=C32)cc1 [ZK 230211, lonaprisan]
MPA-induced proliferative effect [16]: abolished | MPA-induced proliferative effect [17]: abolished | tumor regression ([6]; daily doses of 10 mg/kg): regress | tumor regression ([6]; mouse, in vivo): induced tumor regression | therapeutic effects [6]: excellent therapeutic effects | MPA-induced or FGF2-induced cell proliferation [7]: inhibited MPA-induced or FGF2-induced cell proliferation | antiglucocorticoid activity [4]: low antiglucocorticoid activity | apoptosis ([10]; 10 nM): induces apoptosis | effect on PKA-activated PR-B [13]: no effect on PKA-activated PR-B
